Entries after “also recorded” stand apart in the source; their conditions may differ. Read-outs that look alike come from different tables or passages of the source.
Columns and labels:
[1] = target: T1, full-length recombinant rat vitamin D receptor (Rattus norvegicus, UniProt P13053); assay: biochemical
T1 sequence (P13053 1-423): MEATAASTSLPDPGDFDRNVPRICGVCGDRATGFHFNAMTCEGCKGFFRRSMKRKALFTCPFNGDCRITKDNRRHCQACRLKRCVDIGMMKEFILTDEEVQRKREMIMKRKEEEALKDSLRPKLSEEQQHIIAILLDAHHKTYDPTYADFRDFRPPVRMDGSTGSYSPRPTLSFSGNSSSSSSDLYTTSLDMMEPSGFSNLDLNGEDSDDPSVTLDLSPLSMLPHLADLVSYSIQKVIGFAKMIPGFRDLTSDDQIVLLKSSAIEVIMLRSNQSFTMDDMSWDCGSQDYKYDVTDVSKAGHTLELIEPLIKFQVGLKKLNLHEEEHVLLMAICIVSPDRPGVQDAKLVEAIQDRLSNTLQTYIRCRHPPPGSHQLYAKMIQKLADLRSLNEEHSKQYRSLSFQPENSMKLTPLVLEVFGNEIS
Method: (§2) Full-length recombinant rat receptor was expressed in E. coli BL21 (DE3) Codon Plus RIL cells and purified to homogeneity using two different column chromatography systems. The first system was a nickel affinity resin that utilizes the C-terminal histidine tag on this protein. The protein that was eluted from this resin was further purified using ion exchange chromatography (S-Sepharose Fast Flow). Aliquots of the purified protein were quick frozen in liquid nitrogen and stored at −80° C. until use. For use in binding assays, the protein was diluted in TEDK50 (50 mM Tris, 1.5 mM EDTA, pH7.4, 5 mM DTT, 150 mM KCl) with 0.1% Chaps detergent. The receptor protein and ligand concentration was optimized such that no more than 20% of the added radiolabeled ligand was bound to the receptor.
(§3) Radiolabeled and unlabeled ligands were added to 100 mcl of the diluted protein at a final ethanol concentration of ≦10%, mixed and incubated overnight on ice to reach binding equilibrium. The following day, 100 mcl of hydroxylapatite slurry (50%) was added to each tube and mixed at 10-minute intervals for 30 minutes. The hydroxylapaptite was collected by centrifugation and then washed three times with Tris-EDTA buffer (50 mM Tris, 1.5 mM EDTA, pH 7.4) containing 0.5% Titron X-100. After the final wash, the pellets were transferred to scintillation vials containing 4 ml of Biosafe II scintillation cocktail, mixed and placed in a scintillation counter. Total binding was determined from the tubes containing only radiolabeled ligand.

[2] = Bone calcium mobilization (serum calcium) in vitamin D-deficient rats; type: in vivo, rat; details: for mobilization of bone calcium at 780 pmol/day: 780 pmol/day for 4 consecutive days; for mobilization of bone calcium at 780 pmol/day / bone calcium mobilization activity (serum calcium), in words: 0.02% Ca diet; for bone calcium mobilization activity (serum calcium), in words: dosages tested; for potency relative to the native hormone in releasing bone calcium stores: low calcium diet (0.02%), four consecutive ip doses
Method: (§1) Male, weanling Sprague-Dawley rats were placed on Diet 11 (Suda et al, J. Nutr. 100:1049, 1970) (0.47% Ca)+vitamins AEK for one week followed by Diet 11 (0.02% Ca)+vitamins AEK for 3 weeks. The rats were then switched to the same diet containing 0.47% Ca for one week followed by two weeks on the same diet containing 0.02% Ca. Dose administration began during the last week on 0.02% calcium diet. Four consecutive ip doses were given approximately 24 hours apart. Twenty-four hours after the last dose, blood was collected from the severed neck and the concentration of serum calcium determined by atomic absorption spectrometry as a measure of bone calcium mobilization. The first 10 cm of the intestine was also collected for intestinal calcium transport analysis using the everted gut sac method.

[3] = test system: 24-hydroxylase (24Ohase) gene promoter; assay: In vitro transcription assay, luciferase reporter in ROS 17/2.8 (bone) cells; type: cell-based; details: for EC50: ROS 17/2.8 cells, 24-hydroxylase promoter-luciferase, sixteen hours after dosing, read-out: EC50, transcriptional activity in bone cells; for potency relative to 1,25(OH)2D3 in increasing transcription of the 24-hydroxylase gene: bone cells, fold more potent than 1,25(OH)2D3
Method: Transcription activity was measured in ROS 17/2.8 (bone) cells that were stably transfected with a 24-hydroxylase (24Ohase) gene promoter upstream of a luciferase reporter gene (Arbour et al., 1998). Cells were given a range of doses. Sixteen hours after dosing the cells were harvested and luciferase activities were measured using a luminometer. RLU=relative luciferase units.

[4] = test system: Human promyelocytic leukemia (HL60) cells; assay: HL-60 differentiation (nitro blue tetrazolium reduction); type: cell-based; details: for EC50: HL60 cells, four days of treatment, read-out: EC50, ability to promote HL60 differentiation; for potency on HL-60 cell differentiation compared to 1,25(OH)2D3, in words: HL-60 cells
Method: Serial dilutions were prepared so that a range of drug concentrations could be tested without changing the final concentration of ethanol (≦0.2%) present in the cell cultures.
Human promyelocytic leukemia (HL60) cells were grown in RPMI-1640 medium containing 10% fetal bovine serum. The cells were incubated at 37° C. in the presence of 5% CO2.
HL60 cells were plated at 1.2×10^5 cells/ml. Eighteen hours after plating, cells in duplicate were treated with drug. Four days later, the cells were harvested and a nitro blue tetrazolium reduction assay was performed (Collins et al., 1979; J. Exp. Med. 149:969-974). The percentage of differentiated cells was determined by counting a total of 200 cells and recording the number that contained intracellular black-blue formazan deposits. Verification of differentiation to monocytic cells was determined by measuring phagocytic activity (data not shown).

[5] = target: T1, full-length recombinant rat vitamin D receptor
Method: as §2, §3

[6] = Intestinal calcium transport, everted gut sac method, in vitamin D-deficient rats; type: in vivo, rat; details: compared to 1,25(OH)2D3
Method: as §1

Compound | Ki [1] | mobilization of bone calcium at 780 pmol/day [2] | bone calcium mobilization activity (serum calcium), in words [2] | potency relative to the native hormone in releasing bone calcium stores [2] | EC50 [3] | potency relative to 1,25(OH)2D3 in increasing transcription of the 24-hydroxylase gene [3] | EC50 ([4]; Homo sapiens, HL-60, 96 h) | binding affinity to the receptor compared to the standard 1,25-(OH)2D3, in words [5] | intestinal calcium transport activity, in words [6] | EC50 [4] | potency on HL-60 cell differentiation compared to 1,25(OH)2D3, in words [4]
C=C1/C(=C\C=C2/CCC[C@]3(C)[C@@H]([C@H](C)CCCC(C)(C)O)CC[C@@H]23)C[C@@H](O)C(=C)[C@@H]1O [2EG-R, (20R)-1α,25-dihydroxy-2-methylene-vitamin D3] | 0.06 nM | significant mobilization of bone calcium | more potent than the native hormone | at least 10 times | 0.03 nM | about 10 times | 7 nM | about the same affinity | more potent than 1,25(OH)2D3; also recorded: very significant activity | – | –
C=C1/C(=C\C=C2/CCC[C@]3(C)[C@@H]([C@H](C)CCCC(C)(C)O)CC[C@@H]23)C[C@@H](O)C[C@@H]1O [1α,25-dihydroxyvitamin D3, reference compound] | – | – | increased serum calcium levels | – | 0.2 nM | – | – | – | – | 3 nM | –
C=C1/C(=C/C=C2\CCC[C@]3(C)[C@@H]([C@@H](C)CCCC(C)(C)O)CC[C@@H]23)C[C@@H](O)C(=C)[C@@H]1O [T-2EG-S, (5E)-(20S)-1α,25-dihydroxy-2-methylene-vitamin D3] | 0.1 nM | significant mobilization of bone calcium | more potent than the native hormone | at least 10 times | – | about 10 times | 0.3 nM | about the same affinity | about the same potency as 1,25(OH)2D3; also recorded: very significant activity | – | more potent than 1,25(OH)2D3
C=C1/C(=C\C=C2/CCC[C@]3(C)[C@@H]([C@@H](C)CCCC(C)(C)O)CC[C@@H]23)C[C@@H](O)C(=C)[C@@H]1O [2EG-S, (20S)-1α,25-dihydroxy-2-methylene-vitamin D3] | 0.1 nM | significant mobilization of bone calcium | more potent than the native hormone | at least 10 times | 0.005 nM | about 40 times | 0.06 nM | about the same affinity | more potent than 1,25(OH)2D3; also recorded: very significant activity | – | more potent than 1,25(OH)2D3

From patent US8410080B1, “2-methylene-vitamin D analogs and their uses” (Wisconsin Alumni Research Foundation, priority 2011, dated 2013)
